Laboratory results: patent US20250214951A1, “3-PHENYLISOXAZOLE DERIVATIVE, AND PHARMACEUTICAL COMPOSITION FOR PREVENTING OR TREATING EYE DISEASE, CONTAINING SAME AS ACTIVE INGREDIENT” (VASTHERA CO., LTD., priority 2022, published 2025)

Assays:
Assay type in all cases: cell-based, human
A2E-BDP in ARPE-19 cells = assay: Removal of A2E-BDP by concentration, fluorescence and phase contrast microscopy
Method: ARPE-19 cell line was dispensed into a 24-well plate at a concentration of 4×10^4 cells/well and cultured for 24 hours. In order to induce A2E-BDP accumulation in ARPE-19 cell line, the cells were treated with […] of 10 μM for 24 hours. The A2E-BDP-containing ARPE-19 cells were treated with compound 17 (10, 25, 50 μM) for 24 hours. The level of A2E-BDP in each cell was measured as a fluorescence image at 510 nm using a Nikon Eclipse Ti—U fluorescence microscope (Tokyo, Japan). In addition, the change in cell number according to compound treatment was observed using a general phase contrast microscope, and the results are shown in FIG. 1. Meanwhile, lutein was used as a control substance.

[1] = system: IL-1β, IL-6 and CXCL8 mRNA; assay: Inhibition of blue light-induced inflammatory gene expression (real-time PCR); conditions: A2E and blue light; P<0.05; FIG. 5
Method: ARPE-19 cell lines were seeded in 6-well plates at a concentration of 2×10^4 cells/well and cultured for 24 hours. The process of accumulating A2E in ARPE-19 cell lines, irradiating with blue light, and treating with example 17 compound of the present invention was performed in the same manner as in Experimental Example 5. After 24 hours of irradiating with blue light, total RNA was isolated from ARPE-19 cells using Trizol reagent (Invitrogen), and total RNA was quantified using Nanodrop (Nanodrop, Thermo Scientific). Thereafter, cDNA was synthesized using […] of total RNA, and the cDNA was amplified using the primers described in Table 5 below as a template and a real-time genetic cycler LC480 (Roche) (PCR conditions: denaturation −95° C., 10 seconds; primer binding −60° C., 10 seconds; and extension −72° C., 10 seconds).
At this time, the PCR results for 18S were used as a control to correct the relative amount of genes measured in the ARPE-19 cell line, and the experimental results are shown in FIG. 5.

LC3-II (autophagy flux) = assay: Autophagy flux in A2E-accumulated ARPE-19 with or without bafilomycin; conditions: A2E 25 μM 24 h; 10, 25, 50 μM, 12 h; bafilomycin 2 nM 4 h; FIG. 9
Method: It was measured whether example 17 compound of the present invention increases autophagy flux in the ARPE-19 cell line in which A2E is accumulated. That is, the ARPE-19 cell line was dispensed into a 6-well plate at a concentration of 1×10^5 cells/well and cultured for 24 hours. The cells were treated with A2E at a concentration of 25 μM for 24 hours. The cells were treated with example 17 compound of the present invention at concentrations of 10, 25, and 50 μM for 12 hours each. The method of treating with bafilomycin (2 nM for 4 hours), preparing cell lysate, and measuring LC3-II by Western method was the same as in Experimental Example 8.

ARPE-19 cells = assay: Inhibition of retinal pigment epithelial cell death induced by A2E and blue light
Method: A2E accumulated in human retinal pigment epithelial cells is known to induce cytotoxicity by blue light irradiation. Using a human retinal pigment epithelial cell line, the effect of the compound of the present invention on inhibiting cell death by blue light irradiation was measured.
The ARPE-19 cell line was dispensed into a 6-well plate at a concentration of 2×10^4 cells/well and cultured for 24 hours. In order to induce A2E accumulation in the ARPE-19 cell line, cells were treated with A2E three times at a concentration of 25 μM at 48-hour intervals. Twenty-four hours after the last A2E treatment, cells were treated with example 17 compound of the present invention twice at 24-hour intervals at concentrations of 10, 25, and 50 μM, respectively. After an additional 24 hours of culture, blue light (BL, 430 nm, 7500 lux) was irradiated for 30 minutes and cultured for 24 hours. Cell death was observed under a microscope, and the number of living cells was measured using Image J (National Institutes of Health, USA) to calculate the quantitative cell viability.

C=CCOCc1cc(-c2cc(CC=C)ccc2OC)no1 [Example 17, 3-(5-allyl-2-methoxyphenyl)-5-((allyloxy)methyl)isoxazole]
cytotoxicity against ARPE-19 cells (cell number, phase contrast microscope) (A2E-BDP in ARPE-19 cells; 10, 25, 50 μM, 24 h): no cytotoxicity
A2E-BDP fluorescence intensity (fluorescence microscope) (A2E-BDP in ARPE-19 cells; ARPE-19 with A2E-BDP, 10, 25, 50 μM, 24 h, FIG. 1): a decrease in fluorescence intensity was observed in a concentration-dependent manner
A2E-BDP removal ability compared with lutein (A2E-BDP in ARPE-19 cells; FIG. 1): better A2E-BDP removal ability than lutein
expression of mRNA of inflammation-related genes (IL-1β, IL-6, and CXCL8) [1]: statistically significant reduction
autophagy flux in A2E-accumulated ARPE-19 (LC3-II (autophagy flux)): significantly increased the autophagy flux
cell death induced by A2E and blue light (microscope) (ARPE-19 cells; A2E 25 μM x3, compound 10, 25, 50 μM twice, blue light 430 nm, 7500 lux, 30 min, FIG. 3 upper): cell death was significantly inhibited
cell viability quantified using Image J (cell death by A2E and blue light) (ARPE-19 cells; same model, FIG. 3 lower): statistically significantly inhibited
